Patent US20230348468A1, “1H-PYRAZOLO[4,3-d]PYRIMIDINE COMPOUNDS AS TOLL-LIKE RECEPTOR 7 (TLR7) AGONISTS” (BRISTOL-MYERS SQUIBB COMPANY, priority 2020, published 2023)

Columns and labels:
human TLR7 = target: T1, human TLR7 (Homo sapiens, UniProt Q9NYK1); test: Human TLR7 agonist activity (reporter) assay; type: cell-based; conditions: HEK-Blue TLR7 cells, SEAP reporter, 18 h treatment; average where assay performed multiple times; read-out: hTLR7 Agonism EC50
T1 construct: host or cells: HEK-Blue TLR7 cells (engineered human embryonic kidney cells)
T1 sequence (Q9NYK1 27-1049): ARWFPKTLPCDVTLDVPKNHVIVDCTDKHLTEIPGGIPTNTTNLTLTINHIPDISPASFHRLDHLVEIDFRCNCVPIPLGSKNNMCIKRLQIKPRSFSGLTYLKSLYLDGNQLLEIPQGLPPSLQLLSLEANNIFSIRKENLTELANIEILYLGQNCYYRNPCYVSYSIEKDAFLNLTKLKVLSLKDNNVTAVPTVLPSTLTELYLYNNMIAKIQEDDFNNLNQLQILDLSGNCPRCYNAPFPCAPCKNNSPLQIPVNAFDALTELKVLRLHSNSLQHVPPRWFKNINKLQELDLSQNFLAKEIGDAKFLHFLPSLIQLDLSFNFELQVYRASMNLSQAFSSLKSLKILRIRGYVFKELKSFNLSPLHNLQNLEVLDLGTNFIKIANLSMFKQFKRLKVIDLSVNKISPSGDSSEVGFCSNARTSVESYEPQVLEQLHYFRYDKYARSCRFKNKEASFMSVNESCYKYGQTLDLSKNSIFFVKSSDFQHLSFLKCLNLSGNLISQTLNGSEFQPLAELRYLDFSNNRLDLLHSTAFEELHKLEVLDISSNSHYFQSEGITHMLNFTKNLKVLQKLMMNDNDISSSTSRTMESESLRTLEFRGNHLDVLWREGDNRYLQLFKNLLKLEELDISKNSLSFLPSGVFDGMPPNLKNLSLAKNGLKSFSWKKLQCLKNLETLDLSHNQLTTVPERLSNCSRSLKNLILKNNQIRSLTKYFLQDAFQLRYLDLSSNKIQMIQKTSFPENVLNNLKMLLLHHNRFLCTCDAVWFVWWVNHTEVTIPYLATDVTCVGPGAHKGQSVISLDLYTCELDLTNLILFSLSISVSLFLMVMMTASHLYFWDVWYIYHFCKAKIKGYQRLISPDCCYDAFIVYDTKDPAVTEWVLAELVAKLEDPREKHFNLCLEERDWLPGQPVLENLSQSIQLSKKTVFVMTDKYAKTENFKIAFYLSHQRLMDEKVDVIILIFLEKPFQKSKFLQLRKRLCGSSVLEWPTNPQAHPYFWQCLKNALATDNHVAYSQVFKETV
Description: This procedure describes a method for assaying human TLR7 (hTLR7) agonist activity of the compounds disclosed in this specification.
HEK-Blue™ TLR7 cells were added to each well of a 384-well tissue-culture plate (15,000 cells per well) and incubated 16-18 h at 37° C., 5% CO2. Compounds (100 nl) were dispensed into wells containing the HEK-Blue™ TLR cells and the treated cells were incubated at 37° C., 5% CO2. After 18 h treatment ten microliters of freshly-prepared Quanti-Blue” reagent (Invivogen) was added to each well, incubated for 30 min (37° C., 5% CO2) and SEAP levels measured using an Envision plate reader (OD=620 nm). The half maximal effective concentration values (EC50; compound concentration which induced a response halfway between the assay baseline and maximum) were calculated.

CD69 = test: Induction of CD69 in human whole blood; type: cell-based; conditions: heparinized human whole blood, 17 hrs at 37° C.; 100% set to 1 uM resiquimod; average where assay performed multiple times; read-out: hWB CD69 EC50
Description: The induction of Type I interferon (IFN) MX-1 genes and the B-cell activation marker CD69 are downstream events that occur upon activation of the TLR7 pathway. The following is a human whole blood assay that measures their induction in response to a TLR7 agonist.
Heparinized human whole blood was harvested from human subjects and treated with test TLR7 agonist compounds at 1 mM. The blood was diluted with RPMI 1640 media and Echo was used to predot 10 nL per well giving a final concentration of 1 uM (10 nL in 10 uL of blood). After mixing on a shaker for 30 sec, the plates were covered and placed in a 37° C. chamber for o/n=17 hrs. Fixing/lysis buffer was prepared (5×→1× in H2O, warm at 37° C.; Cat #BD 558049) and kept the perm buffer (on ice) for later use.
For surface markers staining (CD69): prepared surface Abs: 0.045 ul hCD14-FITC (ThermoFisher Cat #MHCD1401)+0.6 ul hCD19-ef450 (ThermoFisher Cat #48-0198-42)+1.5 ul hCD69-PE (cat #BD555531)+0.855 ul FACS buffer. Added 3 ul/well, spin 1000 rpm for 1 min and mixed on shaker for 30 sec, put on ice for 30 mins. Stop stimulation after 30 min with 70 uL of prewarmed 1× fix/lysis buffer and use Feliex mate to resuspend (15 times, change tips for each plate) and incubate at 37 C for 10 min.
Centrifuge at 2000 rpm for 5 min aspirate with HCS plate washer, mix on shaker for 30 sec and then wash with 70 uL in dPBS and pelleted 2×s (2000 rpm for 5 min) and 50 ul wash in FACS buffer pelleted 1×s (2000 rpm for 5 min). Mix on shaker for 30 sec. For Intracellular markers staining (MX-1): Add 50 ul of BD Perm buffer III and mix on shaker for 30 sec. Incubate on ice for 30 min (in the dark). Wash with 50 uL of FACS buffer 2× (spin @2300 rpm×5 min after perm) followed by mixing on shaker for 30 sec. Resuspended in 20 ul of FACS buffer containing MX1 antibody ( )(4812)-Alexa 647: Novus Biologicals #NBP2-43704AF647) 20 ul FACS bf+0.8 ul hIgG+0.04 ul MX-1. Spin 1000 rpm for 1 min, mix on shaker for 30 se and the samples were incubated at RT in the dark for 45 min followed by washing 2×FACS buffer (spin @2300 rpm×5 min after perm). Resuspend 20 ul (35 uL total per well) of FACS buffer and cover with foil and place in 4° C. to read the following day. Plates were read on iQuePlus. The results were loaded into toolset and […] curves are generated in curve master. The y-axis 100% is set to 1 uM of resiquimod.

Row | Compound | EC50 (human TLR7) [nM] | EC50 (CD69) [nM]
1 | CCCCNc1nc(N)nc2cnn(Cc3ccc(C4(O)CCC4)cc3OC)c12 [Compound 117, 1-(4-{[5-amino-7-(butylamino)-1H-pyrazolo[4,3-d]pyrimidin-1-yl]methyl}-3-methoxyphenyl)cyclobutan-1-ol] | 25.9 | 804
2 | CCC[C@@H](CCO)Nc1nc(N)nc2cnn(Cc3nc(C(C)(C)N)ccc3OC)c12 [Compound 119, (3S)-3-[(5-amino-1-{[6-(2-aminopropan-2-yl)-3-methoxypyridin-2-yl]methyl}-1H-pyrazolo[4,3-d]pyrimidin-7-yl)amino]hexan-1-ol] | 4950 | 
3 | CCC[C@@H](CCO)Nc1nc(N)nc2cnn(Cc3ccc(C(C)(C)O)cc3OC)c12 [Compound 109, (3S)-3-[(5-amino-1-{[4-(2-hydroxypropan-2-yl)-2-methoxyphenyl]methyl}-1H-pyrazolo[4,3-d]pyrimidin-7-yl)amino]hexan-1-ol] | 4.6 | 3.5
4 | CCCCNc1nc(N)nc2cnn(Cc3ccc(C(C)(C)N)cc3OC)c12 [Compound 101, 1-(4-(2-Aminopropan-2-yl)-2-methoxybenzyl)-N7-butyl-1H-pyrazolo[4,3-d]pyrimidine-5,7-diamine] | 76.6 | 11.6
5 | CCCCNc1nc(N)nc2cnn(Cc3ccc(C(C)(O)CCC)cc3OC)c12 (stereo not drawn) [Compound 113, 2-(4-{[5-amino-7-(butylamino)-1H-pyrazolo[4,3-d]pyrimidin-1-yl]methyl}-3-methoxyphenyl)pentan-2-ol] | 256 | 
6 | CCCCNc1nc(N)nc2cnn(Cc3ccc(C4(N)COC4)cc3OC)c12 [Compound 107, 1-(4-(3-aminooxetan-3-yl)-2-methoxybenzyl)-N7-butyl-1H-pyrazolo-[4,3-d]pyrimidine-5,7-diamine] | 247 | 42.6
7 | CCCCNc1nc(N)nc2cnn(Cc3cc(C(C)(C)N)ccc3OC)c12 [Compound 105, 1-(5-(2-Aminopropan-2-yl)-2-methoxybenzyl)-N7-butyl-1H-pyrazolo[4,3-d]pyrimidine-5,7-diamine] |  | 50.6
8 | CCCCNc1nc(N)nc2cnn(Cc3ccc(C(C)(O)C(F)(F)F)cc3OC)c12 (stereo not drawn) [Compound 115, 2-(4-{[5-amino-7-(butylamino)-1H-pyrazolo[4,3-d]pyrimidin-1-yl]methyl}-3-methoxyphenyl)-1,1,1-trifluoropropan-2-ol] | 146 | 340
9 | CCCCNc1nc(N)nc2cnn(Cc3ccc(C(C)(O)CC)cc3OC)c12 (stereo not drawn) [Compound 112, 2-(4-{[5-amino-7-(butylamino)-1H-pyrazolo[4,3-d]pyrimidin-1-yl]methyl}-3-methoxyphenyl)butan-2-ol] | 95.9 | 
10 | CCCCNc1nc(N)nc2cnn(Cc3ccc(C4(O)CC4)cc3OC)c12 [Compound 118, 1-(4-{[5-amino-7-(butylamino)-1H-pyrazolo[4,3-d]pyrimidin-1-yl]methyl}-3-methoxyphenyl)cyclopropan-1-ol] | 257 | 276
11 | CCCCNc1nc(N)nc2cnn(Cc3ccc(C4(O)CNC4)cc3OC)c12 [Compound 116, 3-(4-{[5-amino-7-(butylamino)-1H-pyrazolo[4,3-d]pyrimidin-1-yl]methyl}-3-methoxyphenyl)-azetidin-3-ol] | 786 | 
12 | CCC[C@@H](CCO)Nc1nc(N)nc2cnn(Cc3ccc(C4(N)COC4)cc3OC)c12 [Compound 108, (S)-3-((5-amino-1-(4-(3-aminooxetan-3-yl)-2-methoxybenzyl)-1H-pyrazolo[4,3-d]pyrimidin-7-yl)amino)hexan-1-ol] | 43.4 | 3.3
13 | CCC[C@@H](CCO)Nc1nc(N)nc2cnn(Cc3cnc(C(C)(C)N)cc3OC)c12 [Compound 120, (3S)-3-[(5-amino-1-{[6-(2-aminopropan-2-yl)-4-methoxypyridin-3-yl]methyl}-1H-pyrazolo[4,3-d]pyrimidin-7-yl)amino]hexan-1-ol] | 48.3 | 
14 | CCCCNc1nc(N)nc2cnn(Cc3ccc(C(O)(CC)CC)cc3OC)c12 [Compound 111, 3-(4-{[5-amino-7-(butylamino)-1H-pyrazolo[4,3-d]pyrimidin-1-yl]methyl}-3-methoxyphenyl)pentan-3-ol] | 45.9 | 
15 | CCC[C@@H](CCO)Nc1nc(N)nc2cnn(Cc3cc(C(C)(C)N)ccc3OC)c12 [Compound 104, (S)-3-((5-Amino-1-(5-(2-aminopropan-2-yl)-2-methoxybenzyl)-1H-pyrazolo[4,3-d]pyrimidin-7-yl)amino)hexan-1-ol] | 34.5 | 12.7
16 | CCC[C@@H](CCO)Nc1nc(N)nc2cnn(Cc3ccc(C(C)(C)N)cc3OC)c12 [Compound 102, (S)-3-((5-Amino-1-(4-(2-aminopropan-2-yl)-2-methoxybenzyl)-1H-pyrazolo[4,3-d]pyrimidin-7-yl)amino)hexan-1-ol] | 7.2 | 1.8
17 | COc1cc(C(C)(C)N)ccc1Cn1ncc2nc(N)nc(NCc3cc(C)on3)c21 [Compound 103, 1-(4-(2-Aminopropan-2-yl)-2-methoxybenzyl)-N7-((5-methylisoxazol-3-yl)methyl)-1H-pyrazolo[4,3-d]pyrimidine-5,7-diamine] | 202 | 
18 | CCCCNc1nc(N)nc2cnn(Cc3ccc(C4(O)COC4)cc3OC)c12 [Compound 114, 3-(4-{[5-amino-7-(butylamino)-1H-pyrazolo[4,3-d]pyrimidin-1-yl]methyl}-3-methoxyphenyl)oxetan-3-ol] | 410 | 
19 | CCCCNc1nc(N)nc2cnn(Cc3ccc(C(C)(C)O)cc3OC)c12 [Compound 110, 2-(4-{[5-amino-7-(butylamino)-1H-pyrazolo[4,3-d]pyrimidin-1-yl]methyl}-3-methoxyphenyl)propan-2-ol] | 71.1 | 
20 | CC[C@@H](CCO)Nc1nc(N)nc2cnn(Cc3ccc(C(C)(C)N)cc3OC)c12 [Compound 106, (S)-3-((5-amino-1-(4-(2-aminopropan-2-yl)-2-methoxybenzyl)-1H-pyrazolo[4,3-d]pyrimidin-7-yl)amino)pentan-1-ol] | 211 | 3.7
